Source: patent publication US20230192764A1, “NOVEL DOPAMINE PRECURSORS” (Yissum Research Development Company of the Hebrew …, priority 2018, published 2023)
“And” between values parts separate entries of the source, which are not always exact repeats. Identical values can stand only once.

Columns and labels:
[1] = tested on: PC12 cells; test: Phase microscopy of AuF-induced morphological changes in PC12 cells; type: cell-based; conditions: 2 µM AuF 30 min, washed, 150 µM SDA, 37° C., 4 hrs; listed as SDA
Protocol: PC12 cells were treated with AuF with or without SD-444. Morphological changes were visualized 4 hr later (magnification x200).
(FIG. 7A) Control untreated PC12 cells (FIG. 7B). PC12 cells were treated with AuF (2 µM; 30 min) lose their morphology and become rounded, as compared to untreated cells. […] Cells were treated with AuF (2 µM) for 30 min, washed and then SDA was added at 25 µM or 100 µM. Cells were visualized 4 hr later (magnification, 100 × and 400 x).
C) Phase microscopy studies: The ability of SD-444 to rescue cells from oxidative stress was tested by exposing the PC12 to 2 µM auranofin for 30 min, and after washing incubated with 250 µM SD-444 at 37° C. for additional 4 hrs.
B) Phase microscopy studies: The ability of SDA to rescue the cells from oxidative stress was tested by exposing the PC12 to auranofin 2 µM for 30 min with or without 150 µM SDA. AuF was washed after 30 min and 150 µM SDA was added and allowed to incubate at 37° C. for additional 4 hrs.

[2] = tested on: Rotenone -induced model of Parkinson's disease (PD) in rats; test: Rat rearing behavior (cylinder) test, rotenone model; type: in vivo, Sprague Dawley rats; conditions: for Cylinder rise and touch (number of rears in 2 min): individual rat, listed as SDA
Protocol: 1-SD (Rotenone + SD); 2 - SDA (Rotenone + SDA); 3 - Control (Rotenone); 4 -Naive. The experimental groups were comprised of 6 animals for treated groups (1-3) and 2 animals in naive group (4). Rotenone was administrated 3.0 mg/kg intraperitoneally (IP) once a day in the morning (days 1-9). SD 33 mg/kg and SDA 33 mg/kg were administrated intraperitoneally once a day in the afternoon (days 1-9).
Rearing behavior, rotarod and beam walk tests were performed before initiation of treatment (day 0) as well as on days 4, 8 and 10 of the experiment.
IP administration: Rotenone was administrated to groups 1-3. Rotenone was injected intraperitoneally at a dose 3.0 mg/kg once a day in the morning (days 1-9). SD and SDA was administrated both at a dose of 33 mg/kg and were injected intraperitoneally once a day in the afternoon (days 1-9). Group number 4 was untreated, and remained as a naive group.
Animals were placed in a clear glass cylinder (40 cm high and 20 cm diameter) and number of rears in 2 min was observed. Rear was considered as animals raised their hands above the shoulder and made contact with the wall of cylinder with their forelimb.

Compound: CC(=O)NC(CS)C(=O)NC(Cc1cccc(O)c1O)C(N)=O (stereo not shown) [SDA-341, Acetyle-Cys-2,3 dihydroxyphenylalanine-amide]
- morphology of AuF-treated PC12 cells [1]: normal morphology
- Cylinder rise and touch, group average ([2]; average n=6, day 0 (before treatment)): 12.83
- Cylinder rise and touch, group average ([2]; average n=6, day 4): 12.67
- Cylinder rise and touch, group average ([2]; average n=6, day 8): 14.83
- Cylinder rise and touch, group average ([2]; average n=6, day 10): 12.50
- Cylinder rise and touch (number of rears in 2 min) ([2]; day 0 (before treatment), rotenone 3 mg/kg + compound 33 mg/kg IP): 18 (2×) and 9 and 12 (2×) and 8
- Cylinder rise and touch (number of rears in 2 min) ([2]; day 4): 14 (2×) and 12 and 11 and 15 and 10
- Cylinder rise and touch (number of rears in 2 min) ([2]; day 8): 15 and 19 (2×) and 8 and 12 and 16
- Cylinder rise and touch (number of rears in 2 min) ([2]; day 10): 11 and 14 (2×) and 9 and 10 and 17
- Cylinder test, maintaining locomotor activity in Rotenone-treated rats ([2]; rats, rotenone 3.0 mg/kg IP + compound 33 mg/kg IP, days 1-9): very effective
